What all share (assay type): binding
Holding throughout (set-up): key: No binding of immunoglobulin for the defined peptide variant, detection negative: 0; Binding of immunoglobulin for the defined peptide variant, detection positive: +

One assay concerns human IgG-Fc. Briefly: Cellulose-immobilized 13-mer peptide variants incubated with human IgG-Fc, anti-human IgG-AP detection. Particulars: IgG-Fc 1 μg/ml in blocking buffer, 3 h room temperature. Summed up:
(§1)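 Spot membrane, (βA)(βA) spacer; T-TBS pH 8.0 wash, block 5% saccharose/4% BSA. 3 h RT with IgG-Fc 1 μg/ml, serum 1:10,000, or block buffer only (specificity control). 3× wash, AP-anti-human IgG 1.2 μg/ml, NBT/BCIP in pH 9.5 buffer.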

A further assay deals with serum albumin. The experiment in a line: Cellulose-immobilized 13-mer peptide variants incubated with serum albumin (negative control), anti-human IgG-AP detection. Particulars: blocking buffer without addition, 3 h room temperature. Put shortly: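 Peptides on cellulose via a (βA)(βA) spacer were blocked in T-TBS (pH 8.0) with 5% saccharose and 4% BSA, then exposed for 3 h at room temperature to IgG-Fc (1 μg/ml), serum diluted 1:10,000, or blocking buffer alone. Bound IgG was detected with AP-anti-human IgG (1.2 μg/ml) and NBT/BCIP colour development.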

The test system of assay [1] is immunoglobulins in human plasma. The experiment in a line: Cellulose-immobilized 13-mer peptide variants incubated with human plasma, anti-human IgG-AP detection. The conditions noted are these: human plasma as sample, diluted 1:10,000 in blocking buffer, 3 h room temperature. Summed up:
as §1

Bridge positions count the residues as written; N and C are the ends. Square brackets hold non-standard residues; d marks the D form. Ends that are not written are not given here. cellulose = not defined here; βAla = NCCC(=O)O

On to “06I: cellulose-bound 13-mer variant DCAWHIGELVWCT-(βA)(βA) (DCAWHIGELVWCT-{βAla-βAla-cellulose}; disulfide 2-12 (inferred); not fully specified (N-terminus); printed as DCAWHIGELVWCT-(βA)(βA); reading uncertain)”, for which the “Result for incubation with human IgG-Fc (immunoglobulin binding detection)” value (from here on “Result for incubation with human IgG-Fc”) in the assay on human IgG-Fc worked out at 0. In addition, the “Result for incubation with serum albumin (immunoglobulin binding detection)” value (from here on “Result for incubation with serum albumin”) with serum albumin came to 0. Besides, the “Result for incubation with human plasma (immunoglobulin binding detection)” value (shortened to “Result for incubation with human plasma”) in assay [1] came out at 0.
Consider “07T: cellulose-bound 13-mer variant DCAWHLTELVWCT-(βA)(βA) (DCAWHLTELVWCT-{βAla-βAla-cellulose}; disulfide 2-12 (inferred); not fully specified (N-terminus); printed as DCAWHLTELVWCT-(βA)(βA); reading uncertain)”, for which the “Result for incubation with human IgG-Fc” value with human IgG-Fc is recorded as 0. Further, the “Result for incubation with serum albumin” value with serum albumin was found to be 0. Also, the “Result for incubation with human plasma” value in assay [1] stood at 0.
On to “09T: cellulose-bound 13-mer variant DCAWHLGETVWCT-(βA)(βA) (DCAWHLGETVWCT-{βAla-βAla-cellulose}; disulfide 2-12 (inferred); reading uncertain; also: printed as DCAWHLGETVWCT-(βA)(βA))”, for which the “Result for incubation with human IgG-Fc” value in the assay with human IgG-Fc came to 0. Moreover, the “Result for incubation with serum albumin” value in the assay with serum albumin came out at 0. The “Result for incubation with human plasma” value in assay [1] is 0.
Take “10Y: cellulose-bound 13-mer variant DCAWHLGELYWCT-(βA)(βA) (DCAWHLGELYWCT-{βAla-βAla-cellulose}; disulfide 2-12 (inferred); reading uncertain; also: printed as DCAWHLGELYWCT-(βA)(βA))”: the “Result for incubation with human IgG-Fc” value in the assay with human IgG-Fc was 0. Also, in the assay with serum albumin, the “Result for incubation with serum albumin” value came out at 0. For the same substance, in assay [1], the “Result for incubation with human plasma” value is reported as 0.
Take “07S: cellulose-bound 13-mer variant DCAWHLSELVWCT-(βA)(βA) (DCAWHLSELVWCT-{βAla-βAla-cellulose}; disulfide 2-12 (inferred); not fully specified (N-terminus); printed as DCAWHLSELVWCT-(βA)(βA); reading uncertain)”: the “Result for incubation with human IgG-Fc” value with human IgG-Fc is recorded as 0. Also, the “Result for incubation with serum albumin” value in the assay with serum albumin is 0. For the same substance, in assay [1], the “Result for incubation with human plasma” value is reported as 0.
For “11S: cellulose-bound 13-mer variant DCAWHLGELVSCT-(βA)(βA)”, in the assay with human IgG-Fc, the “Result for incubation with human IgG-Fc” value came to 0. Also, in the assay on serum albumin, the “Result for incubation with serum albumin” value is listed as 0. In addition, in assay [1], the “Result for incubation with human plasma” value is 0.
Turning to “03E: cellulose-bound 13-mer variant DCEWHLGELVWCT-(βA)(βA) (DCEWHLGELVWCT-{βAla-βAla-cellulose}; disulfide 2-12 (inferred); reading uncertain; also: printed as DCEWHLGELVWCT-(βA)(βA))”, in the assay with human IgG-Fc, the “Result for incubation with human IgG-Fc” value is “+”. For the same substance, the “Result for incubation with serum albumin” value with serum albumin is 0. Also, in assay [1], the “Result for incubation with human plasma” value turned out to be 0.
For “05M: cellulose-bound 13-mer variant DCAWMLGELVWCT-(βA)(βA) (disulfide 2-12 (inferred); not fully specified (N-terminus, C-terminus); printed as DCAWMLGELVWCT-(βA)(βA); also: cellulose-bound)”, the “Result for incubation with human IgG-Fc” value in the assay with human IgG-Fc was found to be 0. In addition, the “Result for incubation with serum albumin” value in the assay on serum albumin is listed as 0. In assay [1], the “Result for incubation with human plasma” value amounted to 0.
For “05P: cellulose-bound 13-mer variant DCAWPLGELVWCT-(βA)(βA) (disulfide 2-12 (inferred); not fully specified (N-terminus, C-terminus); printed as DCAWPLGELVWCT-(βA)(βA); also: cellulose-bound)”, the “Result for incubation with human IgG-Fc” value in the assay on human IgG-Fc is 0. The “Result for incubation with serum albumin” value with serum albumin was 0. For the same substance, the “Result for incubation with human plasma” value in assay [1] is 0.
With “04G: cellulose-bound 13-mer variant DCAGHLGELVWCT-(βA)(βA) (DCAGHLGELVWCT[βAla][βAla]; disulfide 2-12 (inferred); also: cellulose-bound)”, the “Result for incubation with human IgG-Fc” value in the assay with human IgG-Fc worked out at 0. Also, in the assay on serum albumin, the “Result for incubation with serum albumin” value was 0. Also, in assay [1], the “Result for incubation with human plasma” value amounted to 0.
On to “09P: cellulose-bound 13-mer variant DCAWHLGEPVWCT-(βA)(βA) (DCAWHLGEPVWCT-{βAla-βAla-cellulose}; disulfide 2-12 (inferred); reading uncertain; also: printed as DCAWHLGEPVWCT-(βA)(βA))”, for which the “Result for incubation with human IgG-Fc” value in the assay with human IgG-Fc is “+”. Moreover, the “Result for incubation with serum albumin” value with serum albumin stood at 0. In addition, the “Result for incubation with human plasma” value in assay [1] was 0.
Regarding “10E: cellulose-bound 13-mer variant DCAWHLGELEWCT-(βA)(βA) (DCAWHLGELEWCT-{βAla-βAla-cellulose}; disulfide 2-12 (inferred); reading uncertain; also: printed as DCAWHLGELEWCT-(βA)(βA))”, in the assay on human IgG-Fc, the “Result for incubation with human IgG-Fc” value is recorded as 0. The “Result for incubation with serum albumin” value in the assay with serum albumin was 0. For the same substance, the “Result for incubation with human plasma” value in assay [1] stood at 0.
Regarding “07K: cellulose-bound 13-mer variant DCAWHLKELVWCT-(βA)(βA) (DCAWHLKELVWCT-{βAla-βAla-cellulose}; disulfide 2-12 (inferred); not fully specified (N-terminus); printed as DCAWHLKELVWCT-(βA)(βA); reading uncertain)”, in the assay on human IgG-Fc, the “Result for incubation with human IgG-Fc” value was 0. Besides, in the assay on serum albumin, the “Result for incubation with serum albumin” value is on record as 0. In assay [1], the “Result for incubation with human plasma” value worked out at 0.
With “01M: cellulose-bound 13-mer variant MCAWHLGELVWCT-(βA)(βA) (MCAWHLGELVWCT-{βAla-βAla-cellulose}; disulfide 2-12 (inferred); reading uncertain; also: printed as MCAWHLGELVWCT-(βA)(βA))”, the “Result for incubation with human IgG-Fc” value with human IgG-Fc is listed as “+”. Further, in the assay with serum albumin, the “Result for incubation with serum albumin” value was 0. In assay [1], the “Result for incubation with human plasma” value is given as 0.
In the case of “03W: cellulose-bound 13-mer variant DCWWHLGELVWCT-(βA)(βA) (DCWWHLGELVWCT-{βAla-βAla-cellulose}; disulfide 2-12 (inferred); reading uncertain; also: printed as DCWWHLGELVWCT-(βA)(βA))”, the “Result for incubation with human IgG-Fc” value with human IgG-Fc amounted to 0. Also, in the assay on serum albumin, the “Result for incubation with serum albumin” value worked out at 0. Moreover, the “Result for incubation with human plasma” value in assay [1] is on record as 0.
For “04C: cellulose-bound 13-mer variant DCACHLGELVWCT-(βA)(βA) (DCACHLGELVWCT-{βAla-βAla-cellulose}; disulfide (positions not given here); not fully specified (bridges); printed as DCACHLGELVWCT-(βA)(βA); reading uncertain)”, the “Result for incubation with human IgG-Fc” value in the assay on human IgG-Fc came to 0. In addition, the “Result for incubation with serum albumin” value in the assay with serum albumin was found to be 0. Also, the “Result for incubation with human plasma” value in assay [1] turned out to be 0.
Regarding “11L: cellulose-bound 13-mer variant DCAWHLGELVLCT-(βA)(βA)”, the “Result for incubation with human IgG-Fc” value in the assay with human IgG-Fc was 0. Also, the “Result for incubation with serum albumin” value in the assay on serum albumin is 0. In addition, in assay [1], the “Result for incubation with human plasma” value stood at 0.
For the substance “08M: cellulose-bound 13-mer variant DCAWHLGMLVWCT-(βA)(βA) (DCAWHLGMLVWCT-{βAla-βAla-cellulose}; disulfide 2-12 (inferred); not fully specified (N-terminus); printed as DCAWHLGMLVWCT-(βA)(βA); reading uncertain)”, the “Result for incubation with human IgG-Fc” value in the assay with human IgG-Fc is “+”. For the same substance, the “Result for incubation with serum albumin” value in the assay on serum albumin was found to be 0. Also, the “Result for incubation with human plasma” value in assay [1] is “+”.
For “09I: cellulose-bound 13-mer variant DCAWHLGEIVWCT-(βA)(βA) (DCAWHLGEIVWCT-{βAla-βAla-cellulose}; disulfide 2-12 (inferred); reading uncertain; also: printed as DCAWHLGEIVWCT-(βA)(βA))”, in the assay with human IgG-Fc, the “Result for incubation with human IgG-Fc” value was 0. For the same substance, the “Result for incubation with serum albumin” value with serum albumin is 0. For the same substance, the “Result for incubation with human plasma” value in assay [1] is listed as 0.
Regarding “03T: cellulose-bound 13-mer variant DCTWHLGELVWCT-(βA)(βA) (DCTWHLGELVWCT-{βAla-βAla-cellulose}; disulfide 2-12 (inferred); reading uncertain; also: printed as DCTWHLGELVWCT-(βA)(βA))”, the “Result for incubation with human IgG-Fc” value in the assay with human IgG-Fc is “+”. Also, the “Result for incubation with serum albumin” value with serum albumin is recorded as 0. Also, in assay [1], the “Result for incubation with human plasma” value was “+”.
